Measured values published in patent US20170008888A1 (KYORIN PHARMACEUTICAL CO., LTD., priority 2014, published 2017).

Tests used:
Type in all cases: binding
[1] = biological target: T1, BRD4 bromodomain domain I [BRD4(1)] (Homo sapiens, UniProt O60885); test: BRD4 bromodomain domain 1 inhibition assay (TR-FRET); settings: screening concentration 10 μM
T1 construct: BRD4 bromodomain domain I [BRD4(1)]; purchased Cayman Chemicals
Procedure, shortened: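 0.5% DMSO, in triplicate, using Cayman BRD4(1) TR-FRET protocol with slight modification. 670/620 nm ratio normalized to 10 μM JQ1, with DMSO control set as 0% inhibition.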

AurA = biological target: T2, AurA (Homo sapiens, UniProt O14965); test: Probe-based (AX9989) kinase profiling in Jurkat lysate: AurA; settings: read-out: Kinase inhibition % at indicated screening concentration: AurA; for inhibition at 1 µM: screening concentration 1.0 μM; for inhibition at 0.1 µM: screening concentration 0.1 μM
T2 construct: screened for activity against several kinases in Jurkat cells; endogenous in cells; host or cells: Jurkat cell lysate
T2 sequence (O14965 1-403): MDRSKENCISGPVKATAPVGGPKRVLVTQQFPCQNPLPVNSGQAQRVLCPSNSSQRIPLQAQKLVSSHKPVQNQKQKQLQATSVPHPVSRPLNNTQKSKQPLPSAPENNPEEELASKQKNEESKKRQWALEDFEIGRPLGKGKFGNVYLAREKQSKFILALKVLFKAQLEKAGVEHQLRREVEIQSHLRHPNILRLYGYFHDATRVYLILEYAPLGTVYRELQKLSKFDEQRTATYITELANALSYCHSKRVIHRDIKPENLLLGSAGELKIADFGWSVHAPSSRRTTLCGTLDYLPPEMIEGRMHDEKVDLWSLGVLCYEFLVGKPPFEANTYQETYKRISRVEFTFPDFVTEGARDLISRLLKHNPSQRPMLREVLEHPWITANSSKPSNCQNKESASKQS
Procedure, shortened: (§1)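 Read-out: LC/MS intensity of desthiobiotinylated kinase active-site peptides, percent inhibition normalized to no-compound lysate. Jurkat lysate with 20 mM MnCl2 received compound for 15 min at room temperature, then 5 μM AX9989 probe; duplicates.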

AMPKa1 or AMPKa2 = test: Probe-based (AX9989) kinase profiling in Jurkat lysate: AMPKa1 or AMPKa2
Procedure, shortened: as §1

ERK5 = biological target: T3, ERK5 (Homo sapiens, UniProt Q13164); test: Probe-based (AX9989 acyl phosphate ATP probe) kinase profiling in Jurkat lysate: ERK5; settings: for IC50: calculated from percent inhibition of AX9989 labeling and the screening concentration, Jurkat lysate; for inhibition at 1 µM: screening concentration 1.0 μM; for inhibition at 1 µM / inhibition at 0.1 µM: read-out: Kinase inhibition % at indicated screening concentration: ERK5; for inhibition at 0.1 µM: screening concentration 0.1 μM
T3 construct: screened for activity against several kinases in Jurkat cells; endogenous in cells; host or cells: Jurkat cell lysate
T3 sequence (Q13164 whole entry): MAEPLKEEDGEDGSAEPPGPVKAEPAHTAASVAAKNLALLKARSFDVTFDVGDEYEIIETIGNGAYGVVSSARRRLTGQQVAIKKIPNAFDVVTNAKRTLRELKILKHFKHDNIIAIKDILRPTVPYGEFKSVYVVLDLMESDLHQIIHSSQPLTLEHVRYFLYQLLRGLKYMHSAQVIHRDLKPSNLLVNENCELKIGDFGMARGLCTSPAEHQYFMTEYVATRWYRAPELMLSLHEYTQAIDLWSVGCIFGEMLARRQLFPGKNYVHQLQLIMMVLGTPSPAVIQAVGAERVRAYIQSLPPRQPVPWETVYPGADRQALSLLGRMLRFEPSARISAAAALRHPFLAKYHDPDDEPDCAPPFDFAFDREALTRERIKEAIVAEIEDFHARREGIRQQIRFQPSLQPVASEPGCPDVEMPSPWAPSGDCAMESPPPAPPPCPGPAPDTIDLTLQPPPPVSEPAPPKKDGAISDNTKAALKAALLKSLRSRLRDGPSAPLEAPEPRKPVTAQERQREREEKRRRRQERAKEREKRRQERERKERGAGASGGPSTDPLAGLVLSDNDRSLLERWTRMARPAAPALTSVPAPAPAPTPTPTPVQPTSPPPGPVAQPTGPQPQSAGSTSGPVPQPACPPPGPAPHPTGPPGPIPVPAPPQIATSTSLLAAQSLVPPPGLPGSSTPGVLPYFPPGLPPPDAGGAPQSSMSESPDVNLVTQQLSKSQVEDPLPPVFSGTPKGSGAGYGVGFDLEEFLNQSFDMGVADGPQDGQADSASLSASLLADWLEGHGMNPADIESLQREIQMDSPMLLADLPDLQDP
Procedure, shortened: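 ERK5 IC50 values came from percent inhibition at the screening concentration, measured as loss of LC/MS signal of probe-labelled active-site peptides. Compound was added for 15 min at room temperature to Jurkat lysate (5 mg/ml, 20 mM MnCl2) before labelling with AX9989 ATP acyl phosphate probe at 5 μM.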

ABL or ARG = test: Probe-based (AX9989) kinase profiling in Jurkat lysate: ABL or ARG
Procedure, shortened: as §1

JAK1 = biological target: T4, JAK1 (Homo sapiens, UniProt P23458); test: Probe-based (AX9989) kinase profiling in Jurkat lysate: JAK1; settings: read-out: Kinase inhibition % at indicated screening concentration: JAK1; for inhibition at 1 µM: screening concentration 1.0 μM; for inhibition at 0.1 µM: screening concentration 0.1 μM
T4 construct: screened for activity against several kinases in Jurkat cells; endogenous in cells; host or cells: Jurkat cell lysate
T4 sequence (P23458 whole entry): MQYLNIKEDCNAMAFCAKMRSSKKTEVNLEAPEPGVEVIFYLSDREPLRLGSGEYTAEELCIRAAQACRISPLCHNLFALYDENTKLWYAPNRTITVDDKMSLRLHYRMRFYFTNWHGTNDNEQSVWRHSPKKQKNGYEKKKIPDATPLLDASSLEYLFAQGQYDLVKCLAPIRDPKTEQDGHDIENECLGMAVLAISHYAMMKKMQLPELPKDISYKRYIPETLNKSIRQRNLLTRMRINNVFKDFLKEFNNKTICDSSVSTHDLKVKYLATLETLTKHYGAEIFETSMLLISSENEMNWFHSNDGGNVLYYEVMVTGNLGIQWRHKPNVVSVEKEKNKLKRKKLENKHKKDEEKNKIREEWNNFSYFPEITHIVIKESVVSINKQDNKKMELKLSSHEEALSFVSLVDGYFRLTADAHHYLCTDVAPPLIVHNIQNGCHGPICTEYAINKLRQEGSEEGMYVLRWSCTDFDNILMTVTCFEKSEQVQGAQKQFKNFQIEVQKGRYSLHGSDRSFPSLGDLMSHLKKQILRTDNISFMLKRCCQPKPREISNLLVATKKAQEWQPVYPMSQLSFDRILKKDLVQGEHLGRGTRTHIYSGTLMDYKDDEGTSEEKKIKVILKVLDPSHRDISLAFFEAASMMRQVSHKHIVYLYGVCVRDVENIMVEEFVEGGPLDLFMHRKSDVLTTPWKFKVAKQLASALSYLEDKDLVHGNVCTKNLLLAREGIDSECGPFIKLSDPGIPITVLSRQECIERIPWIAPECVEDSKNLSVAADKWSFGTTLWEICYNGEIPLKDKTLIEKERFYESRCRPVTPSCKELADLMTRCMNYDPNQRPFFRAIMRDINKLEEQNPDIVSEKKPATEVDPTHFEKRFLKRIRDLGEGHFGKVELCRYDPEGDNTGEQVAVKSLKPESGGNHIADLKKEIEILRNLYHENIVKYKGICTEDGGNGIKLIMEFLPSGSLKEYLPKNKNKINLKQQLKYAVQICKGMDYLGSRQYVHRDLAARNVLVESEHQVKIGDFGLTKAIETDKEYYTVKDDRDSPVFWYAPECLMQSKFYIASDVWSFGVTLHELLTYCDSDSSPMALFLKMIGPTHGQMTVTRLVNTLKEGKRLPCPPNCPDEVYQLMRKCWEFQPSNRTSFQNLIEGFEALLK
Procedure, shortened: as §1

ACK = biological target: T5, ACK (Homo sapiens, UniProt Q07912); test: Probe-based (AX9989) kinase profiling in Jurkat lysate: ACK; settings: read-out: Kinase inhibition % at indicated screening concentration: ACK; for inhibition at 1 µM: screening concentration 1.0 μM; for inhibition at 0.1 µM: screening concentration 0.1 μM
T5 construct: screened for activity against several kinases in Jurkat cells; endogenous in cells; host or cells: Jurkat cell lysate
T5 sequence (Q07912 whole entry): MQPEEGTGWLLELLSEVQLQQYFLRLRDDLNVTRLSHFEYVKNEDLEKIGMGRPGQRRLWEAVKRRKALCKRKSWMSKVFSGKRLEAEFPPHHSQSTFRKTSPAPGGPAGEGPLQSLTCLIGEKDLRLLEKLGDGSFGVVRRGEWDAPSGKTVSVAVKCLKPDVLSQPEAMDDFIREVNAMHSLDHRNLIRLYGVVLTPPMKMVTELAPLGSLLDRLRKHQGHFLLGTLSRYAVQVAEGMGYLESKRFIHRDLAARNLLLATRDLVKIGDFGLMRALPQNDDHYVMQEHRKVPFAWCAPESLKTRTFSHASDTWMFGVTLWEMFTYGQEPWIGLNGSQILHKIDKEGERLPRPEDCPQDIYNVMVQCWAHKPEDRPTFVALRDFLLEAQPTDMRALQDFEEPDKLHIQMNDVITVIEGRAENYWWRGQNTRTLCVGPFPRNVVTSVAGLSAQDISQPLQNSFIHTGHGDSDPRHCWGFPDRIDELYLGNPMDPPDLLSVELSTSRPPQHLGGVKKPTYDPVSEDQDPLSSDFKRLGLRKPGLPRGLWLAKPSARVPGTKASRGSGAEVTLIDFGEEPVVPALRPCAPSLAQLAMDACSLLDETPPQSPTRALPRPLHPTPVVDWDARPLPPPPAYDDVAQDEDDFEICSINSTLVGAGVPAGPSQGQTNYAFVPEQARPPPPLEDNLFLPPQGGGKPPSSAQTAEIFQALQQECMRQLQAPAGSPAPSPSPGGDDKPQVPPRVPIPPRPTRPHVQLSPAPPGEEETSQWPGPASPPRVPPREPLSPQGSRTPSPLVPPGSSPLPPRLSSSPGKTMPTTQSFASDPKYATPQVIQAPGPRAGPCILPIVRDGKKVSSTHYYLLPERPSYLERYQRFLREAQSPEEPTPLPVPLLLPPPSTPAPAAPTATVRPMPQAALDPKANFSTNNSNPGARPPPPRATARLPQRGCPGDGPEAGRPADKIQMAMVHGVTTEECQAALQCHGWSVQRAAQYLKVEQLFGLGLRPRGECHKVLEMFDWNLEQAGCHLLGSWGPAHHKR
Procedure, shortened: as §1

AurB or AurC = test: Probe-based (AX9989) kinase profiling in Jurkat lysate: AurB or AurC
Procedure, shortened: as §1

Row | Structure (SMILES) | inhibition at 10 µM [1] [%] | inhibition at 1 µM (AurA) [%] | Kinase inhibition % at indicated screening concentration: AMPKa1 or AMPKa2 (AMPKa1 or AMPKa2; screening concentration 1.0 μM) | IC50 (ERK5) [µM] | inhibition at 1 µM (ERK5) [%] | Kinase inhibition % at indicated screening concentration: ABL or ARG (ABL or ARG; screening concentration 1.0 μM) | inhibition at 1 µM (JAK1) [%] | inhibition at 1 µM (ACK) [%] | Kinase inhibition % at indicated screening concentration: AurB or AurC (AurB or AurC; screening concentration 1.0 μM) | inhibition at 0.1 µM (AurA) [%] | Kinase inhibition % at indicated screening concentration: AMPKa1 or AMPKa2 (AMPKa1 or AMPKa2; screening concentration 0.1 μM) | inhibition at 0.1 µM (ERK5) [%] | Kinase inhibition % at indicated screening concentration: ABL or ARG (ABL or ARG; screening concentration 0.1 μM) | inhibition at 0.1 µM (JAK1) [%] | inhibition at 0.1 µM (ACK) [%] | Kinase inhibition % at indicated screening concentration: AurB or AurC (AurB or AurC; screening concentration 0.1 μM)
1 | CCOc1cc(C(=O)N2CCC(N3CCN(C)CC3)CC2)ccc1Nc1cc2c(cn1)N(C)C(=O)c1ncccc1N2C [Compound 40] | < 70 | ≤ 35 | E (E is ≦35%) | ≤ 0.05 | > 90 | E (E is ≦35%) | ≤ 35 | ≤ 35 | E (E is ≦35%) |  |  |  |  |  |  | 
2 | CCOc1cc(C(=O)N(C)CCn2ccnc2)ccc1Nc1cc2c(cn1)N(C)C(=O)c1ccccc1N2C [Compound 30] | 70 to 85 |  |  | ≤ 0.05 |  |  |  |  |  | ≤ 35 | E (E is ≦35%) | 75 to 90 | E (E is ≦35%) | ≤ 35 | ≤ 35 | E (E is ≦35%)
3 | CCOc1cc(C(=O)N2CCNC[C@@H]2C)ccc1Nc1cc2c(cn1)N(C)C(=O)c1ccccc1N2C [Compound 31] | > 85 |  |  | ≤ 0.05 |  |  |  |  |  | ≤ 35 | E (E is ≦35%) | 75 to 90 | E (E is ≦35%) | ≤ 35 | ≤ 35 | E (E is ≦35%)
4 | CCOc1cc(C(=O)N2CCC(N3CCCC3)C2)ccc1Nc1cc2c(cn1)N(C)C(=O)c1occc1N2C (stereo not drawn) [Compound 15] | > 85 |  |  | ≤ 0.05 |  |  |  |  |  | ≤ 35 | E (E is ≦35%) | 75 to 90 | E (E is ≦35%) | ≤ 35 | ≤ 35 | E (E is ≦35%)
5 | CCOc1cc(C(=O)N2CC[C@@H](N(C)C)C2)ccc1Nc1cc2c(cn1)N(C)C(=O)c1occc1N2C [Compound 25] | > 85 |  |  | ≤ 0.05 |  |  |  |  |  | ≤ 35 | E (E is ≦35%) | > 90 | E (E is ≦35%) | ≤ 35 | ≤ 35 | E (E is ≦35%)
6 | CCOc1cc(C(=O)N(C)CCN2CCCC2)ccc1Nc1cc2c(cn1)N(C)C(=O)c1ccccc1N2C [Compound 28] | > 85 |  |  | 0.05 to 0.1 |  |  |  |  |  | ≤ 35 | E (E is ≦35%) | > 90 | E (E is ≦35%) | ≤ 35 | ≤ 35 | E (E is ≦35%)
7 | CCOc1cc(C(=O)N(C)CCN(CC)CC)ccc1Nc1cc2c(cn1)N(C)C(=O)c1ccccc1N2C [Compound 42] | > 85 | ≤ 35 | E (E is ≦35%) | ≤ 0.05 | > 90 | E (E is ≦35%) | ≤ 35 | ≤ 35 | E (E is ≦35%) |  |  |  |  |  |  | 
8 | C=CCN1CCN(C(=O)c2ccc(Nc3cc4c(cn3)N(C)C(=O)c3ccccc3N4C)c(OCC)c2)CC1 [Compound 21] | 70 to 85 |  |  | ≤ 0.05 |  |  |  |  |  | ≤ 35 | E (E is ≦35%) | 75 to 90 | E (E is ≦35%) | ≤ 35 | ≤ 35 | E (E is ≦35%)
